We go through three molecules from patent publication US7323490B2, “Pyrrole compounds and uses thereof” (Ambit Biosciences Corporation, priority 2003, dated 2008).

One experiment addresses T1, CLB2 (Homo sapiens, UniProt P22676).
T1 construct: made in house; host or cells: T7 phage amplified in E. coli
T1 sequence (P22676 1-271): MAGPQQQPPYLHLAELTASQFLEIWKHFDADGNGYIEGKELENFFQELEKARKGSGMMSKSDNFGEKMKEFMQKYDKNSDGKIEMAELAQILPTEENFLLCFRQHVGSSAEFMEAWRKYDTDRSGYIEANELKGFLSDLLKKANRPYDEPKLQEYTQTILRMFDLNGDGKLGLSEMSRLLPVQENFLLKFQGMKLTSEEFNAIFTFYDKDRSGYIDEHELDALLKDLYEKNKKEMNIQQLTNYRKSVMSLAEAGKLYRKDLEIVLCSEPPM
Kind of experiment: T7 phage display competition binding assay (immobilized atorvastatin), CLB2. The conditions noted are these: soluble competitor vs atorvastatin-coated affinity matrix; T7 phage displaying CLB2. The source says:
(§1) The T7 phage displaying human PDE6D and CLB2 were obtained following the procedure of WO 01/18234, published Mar. 15, 2001, and U.S. patent applications Ser. No. 10/115,442, “Phage Display Affinity Filter and Forward Screen,” filed Apr. 2, 2002 and Ser. No. 10/214,654, “Uncoupling DNA Insert Propagation and Protein Display,” filed Aug. 7, 2002. […] The phage eluate was then amplified by growth in E. coli and the affinity enrichment procedure was repeated.
(§2) The dissociation constants, Kd's, for the interaction between the pyrrole compounds and the novel targets were obtained following the procedure of the co-pending patent applications U.S. Ser. Nos. 10/115,442, “Phage Display Affinity Filter and Forward Screen,” filed Apr. 2, 2002 and 60/480,587, “Protein Family Profiling Tool and Methods,” filed Jun. 20, 2003.

For another experiment, the target named is T2, HMG-CoA reductase (Homo sapiens, UniProt P04035).
T2 sequence (P04035 1-888): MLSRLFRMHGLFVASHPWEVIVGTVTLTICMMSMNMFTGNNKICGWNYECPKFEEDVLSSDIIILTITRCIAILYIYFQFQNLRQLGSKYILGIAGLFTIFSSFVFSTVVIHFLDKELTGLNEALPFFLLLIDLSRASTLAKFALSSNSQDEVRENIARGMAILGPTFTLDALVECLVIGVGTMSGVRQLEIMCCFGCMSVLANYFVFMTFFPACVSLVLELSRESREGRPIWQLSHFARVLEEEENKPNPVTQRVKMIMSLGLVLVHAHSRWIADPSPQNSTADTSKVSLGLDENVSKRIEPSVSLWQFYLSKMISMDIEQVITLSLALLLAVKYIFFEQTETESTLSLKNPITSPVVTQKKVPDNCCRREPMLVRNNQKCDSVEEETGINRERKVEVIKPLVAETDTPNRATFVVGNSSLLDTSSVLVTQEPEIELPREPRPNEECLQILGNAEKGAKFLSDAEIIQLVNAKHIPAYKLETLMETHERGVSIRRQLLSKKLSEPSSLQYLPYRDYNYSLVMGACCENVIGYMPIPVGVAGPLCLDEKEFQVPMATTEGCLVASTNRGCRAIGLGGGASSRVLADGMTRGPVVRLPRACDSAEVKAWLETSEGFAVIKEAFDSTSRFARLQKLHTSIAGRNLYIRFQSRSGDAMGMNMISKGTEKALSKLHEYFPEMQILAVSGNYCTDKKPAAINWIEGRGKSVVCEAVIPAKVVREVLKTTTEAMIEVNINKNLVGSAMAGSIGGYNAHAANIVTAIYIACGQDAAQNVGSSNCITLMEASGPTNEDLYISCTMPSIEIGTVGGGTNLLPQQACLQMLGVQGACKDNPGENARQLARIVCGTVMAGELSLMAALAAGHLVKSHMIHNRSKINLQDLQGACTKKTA
Kind of experiment: enzymatic activity-based HMG-CoA reductase assay. Format: biochemical. To be noted: concentrations up to 4 μM. The method, then:
In addition, compounds 781430, 781066, 780780, 780754, 779974, 781456, 782236, 782756, 783250 and 780520 were tested in enzymatic activity-based HMG-CoA reductase assays. […] Blank cells indicate there was no detectable interaction while the “nd” designation indicates the Kd was not determined.

The target of experiment [1] is T3, PDE6D (Homo sapiens, UniProt O43924). Kind of experiment: phage-based competition binding screen at 2 μM. Set-up: made in house; host or cells: phage. The conditions noted are these: 2 μM competitor, duplicate. The method, then:
Forty-four molecules were screened for PDE6D binding activity in a standard phage-based competition binding assay, as described in co-pending U.S. patent applications Ser. No. 10/115,442, filed 2 Apr. 2002, and Ser. No. 10/406,797 filed on 2 Apr. 2003 (or PCT International Application PCT/US03/10247 filed 2 Apr. 2003). All compounds were screened in duplicate (duplicate sets of bars) at a concentration of 2 μM.

Experiment [2] has as its target T3, PDE6D. Kind of experiment: T7 phage display competition binding assay (immobilized atorvastatin), PDE6D. Set-up: made in house; host or cells: T7 phage amplified in E. coli. The conditions noted are these: soluble competitor vs atorvastatin-coated affinity matrix; T7 phage displaying human PDE6D.
Excerpt: as §1, §2

For the next experiment, the target named is T4, rat liver NQO2 (Rattus norvegicus, UniProt Q6AY80).
T4 construct: from tissue; host or cells: rat liver protein extract
T4 sequence (Q6AY80 1-231): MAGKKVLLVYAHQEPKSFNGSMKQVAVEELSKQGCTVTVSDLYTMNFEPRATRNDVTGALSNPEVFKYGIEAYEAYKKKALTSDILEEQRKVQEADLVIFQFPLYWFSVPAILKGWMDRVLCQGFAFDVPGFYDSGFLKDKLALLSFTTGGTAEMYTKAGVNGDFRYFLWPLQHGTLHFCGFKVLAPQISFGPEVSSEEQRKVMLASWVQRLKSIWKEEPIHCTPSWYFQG
Kind of experiment: Binding curve assay, rat liver NQO2 and atorvastatin bait. To be noted: rat liver extract; semi-quantitative, densitometric scanning of silver-stained gel; read-out: apparent Kd NQO2.

In another experiment the target is T5, NQO2 (Rattus norvegicus, UniProt Q6AY80).
T5 construct: from tissue; host or cells: rat liver or brain protein extract
T5 sequence (Q6AY80 1-231): T4 sequence (Q6AY80 1-231)
Kind of experiment: NQO2 binding pocket competition experiment, rat brain protein extract. To be noted: competitors menadione, quercetin, FAD. The source says:
The crystal structure of the NQO2 protein has shown that this protein contains three distinct binding pockets. […] The data were obtained by loading the pooled eluates on a SDS-PAGE gel followed by silver staining.

In experiment [3] the target is T3, PDE6D. As to the kind of experiment: Binding assay with E. coli-expressed human PDE6D. The conditions noted are these: 10 μM competitors; dot blot. Set-up: made in house; host or cells: T7 phage amplified in E. coli. The method, then:
The full-length coding sequence for human PDE6D was cloned into the pRSET vector for E. coli expression. The PDE6D coding sequence was fused in-frame with a His tag for purification purposes. […] The experiments were performed in duplicate. The data were obtained by loading the eluates from the binding experiment on a dot blot apparatus and subsequent detection with a PDE6D-specific antibody.

Take `CC(C)c1[nH]c(-c2ccc(F)cc2)c(-c2ccccc2)c1C(=O)Nc1ccccc1` [Compound 781430]: the values for the Kd on CLB2 and on PDE6D [2] were 940 nM and 75 nM, respectively. At HMG-CoA reductase, the “inhibition of the activity of HMG-CoA reductase” value is listed as “none of the tested compounds inhibited”. Besides, the “fraction of PDE6D-displaying phage bound to immobilized atorvastatin (screen outcome)” value on PDE6D [1] is given as “candidate lead compounds”.

On to `CC(C)c1c(C(=O)Nc2ccccc2)c(-c2ccccc2)c(-c2ccc(F)cc2)n1CC(O)C(O)C(O)C(O)CO` (stereo not drawn) [Compound 782236], for which, at HMG-CoA reductase, the “inhibition of the activity of HMG-CoA reductase” value was “none of the tested compounds inhibited”. Besides, the Kd on PDE6D [2] came out at 269 nM.

For the molecule `CC(C)c1c(C(=O)Nc2ccccc2)c(-c2ccccc2)c(-c2ccc(F)cc2)n1CC[C@@H](O)C[C@@H](O)CC(=O)O` [atorvastatin, reference compound], the Kd at rat liver NQO2 is approximately 500 nM. Further, the NQO2 binding pocket result at NQO2 is reported as “binds the electron donor NRH pocket”. In addition, the “binding of E. coli expressed human PDE6D to immobilized atorvastatin bait” value on PDE6D [3] is recorded as “E. coli expressed human PDE6D binds to atorvastatin”.
